# Measured values as given in ChEMBL document CHEMBL4825714, “Hinge Binder Scaffold Hopping Identifies Potent Calcium/Calmodulin-Dependent Protein Kinase Kinase 2 (CAMKK2) Inhibitor Chemotypes” (J Med Chem, 2021).
# Test: Solubility of the compound
# Format: physicochemical
row,solubility [µg/mL],SMILES
1,1.5,O=C(O)c1ccc(-c2csc3ncc(-c4ccccc4)cc23)cc1C1CCCC1
2,38,O=C(O)c1ccc(-c2ccnc3ccc(-c4ccccc4)cc23)cc1C1CCCC1
3,2,O=C(O)c1ccc(-c2c[nH]c3ncc(-c4ccccc4)cc23)cc1C1CCCC1 [GSK-650394]

# More lines, now with the values behind:
row,SMILES,solubility [µg/mL]
1,O=C(O)c1ccc(-c2ncnc3ccc(-c4ccccc4)cc23)cc1C1CCCC1,70.4
2,O=C(O)c1ccc(-c2cnn3ccc(-c4ccccc4)cc23)cc1C1CCCC1,42
3,O=C(O)c1ccc(-c2ccnc3ccccc23)cc1C1CCCC1,64.4
4,O=C(O)c1ccc(-c2ncnc3sccc23)cc1C1CCCC1,62.6
5,O=C(O)c1ccc(-c2ccnc(Nc3ccccc3)n2)cc1C1CCCC1,10.6
6,Cn1ccc2c(-c3ccc(C(=O)O)c(C4CCCC4)c3)ccnc21,40
7,O=C(O)c1ccc(-c2ccncn2)cc1C1CCCC1,19.4
